Source: ChEMBL document CHEMBL3885881, “DrugMatrix”

Species on record: Rattus norvegicus
Assay: DrugMatrix - Regimen: Daily Repeat
Format: toxicity, organism-based, Sprague-Dawley
Design: regimen Daily Repeat, gender Male, age 6-8 weeks
Settings: in vivo, iv, vehicle 100 % SALINE; for URIC ACID / ALANINE AMINOTRANSFERASE / ALBUMIN / ALKALINE PHOSPHATASE / ASPARTATE AMINOTRANSFERASE / BLOOD UREA NITROGEN / CARBON DIOXIDE / CHLORIDE / CHOLESTEROL / CREATINE PHOSPHOKINASE / CREATININE / GLUCOSE / LIPASE / PHOSPHORUS / POTASSIUM / SODIUM / TOTAL BILIRUBIN / TOTAL PROTEIN: tissue Plasma; for ABSOLUTE BASOPHIL / ABSOLUTE EOSINOPHIL / ABSOLUTE LYMPHOCYTE / ABSOLUTE MONOCYTE / ABSOLUTE SEGMENTED NEUTROPHIL / BASOPHIL / EOSINOPHIL / ERYTHROCYTE COUNT / HEMATOCRIT / HEMOGLOBIN / LYMPHOCYTE / MEAN CORPUSCULAR HEMOGLOBIN / MEAN CORPUSCULAR HEMOGLOBIN CONCENTRATION / MONOCYTE / NEUTROPHIL / NUCLEATED RED BLOOD CELLS / PLATELET COUNT: tissue Blood
[1] = 5 mg/kg, 120 h, dose level High, time 5 day
[2] = […], 72 h, dose 1.5 mg/Kg, dose level Low, time 3 day
[3] = […], 120 h, dose 1.5 mg/Kg, dose level Low, time 5 day

Compound: CCc1c2c(nc3ccc(OC(=O)N4CCC(N5CCCCC5)CC4)cc13)-c1cc3c(c(=O)n1C2)COC(=O)[C@]3(O)CC [IRINOTECAN]
- URIC ACID (5 mg/kg, 72 h, dose level High, time 3 day): 1.77 mg/dL
- ABSOLUTE BASOPHIL [1]: 0 CELLS/uL
- ABSOLUTE EOSINOPHIL [1]: 0 CELLS/uL
- ABSOLUTE LYMPHOCYTE [1]: 10356 CELLS/uL
- ABSOLUTE MONOCYTE [1]: 74 CELLS/uL
- ABSOLUTE SEGMENTED NEUTROPHIL [1]: 470 CELLS/uL
- BASOPHIL [1]: 0%
- EOSINOPHIL [1]: 0%
- ERYTHROCYTE COUNT [1]: 6.32 x10E6/uL
- HEMATOCRIT [1]: 37.73%
- HEMOGLOBIN [1]: 15.1 G/DL
- LYMPHOCYTE [1]: 95%
- MEAN CORPUSCULAR HEMOGLOBIN [1]: 23.93 pg
- MEAN CORPUSCULAR HEMOGLOBIN CONCENTRATION [1]: 40.07 G/DL
- MONOCYTE [1]: 0.67%
- NEUTROPHIL [1]: 4.33%
- NUCLEATED RED BLOOD CELLS [1]: 0 /100WBC
- PLATELET COUNT [1]: 1232.33 x10E3/uL
- ALANINE AMINOTRANSFERASE [1]: 38 u/L
- ALBUMIN [1]: 4.37 G/DL
- ALKALINE PHOSPHATASE [1]: 299.33 u/L
- ASPARTATE AMINOTRANSFERASE [1]: 100.33 u/L
- BLOOD UREA NITROGEN [1]: 21.33 mg/dL
- CARBON DIOXIDE [1]: 22.67 mmol/L
- CHLORIDE [1]: 100 MEQ/L
- CHOLESTEROL [1]: 65 mg/dL
- CREATINE PHOSPHOKINASE [1]: 991 u/L
- CREATININE [1]: 0.24 mg/dL
- GLUCOSE [1]: 171.67 mg/dL
- LIPASE [1]: 9.33 u/L
- PHOSPHORUS [1]: 12.93 mg/dL
- POTASSIUM [1]: 6.75 MEQ/L
- SODIUM [1]: 142.97 MEQ/L
- TOTAL BILIRUBIN [1]: 0.13 mg/dL
- TOTAL PROTEIN [1]: 6.67 G/DL
- URIC ACID [1]: 2.8 mg/dL
- ABSOLUTE BASOPHIL [2]: 0 CELLS/uL
- ABSOLUTE EOSINOPHIL [2]: 215 CELLS/uL
- ABSOLUTE LYMPHOCYTE [2]: 8779 CELLS/uL
- ABSOLUTE MONOCYTE [2]: 139.33 CELLS/uL
- ABSOLUTE SEGMENTED NEUTROPHIL [2]: 933.33 CELLS/uL
- BASOPHIL [2]: 0%
- EOSINOPHIL [2]: 2%
- ERYTHROCYTE COUNT [2]: 5.76 x10E6/uL
- HEMATOCRIT [2]: 36.73%
- HEMOGLOBIN [2]: 14.23 G/DL
- LYMPHOCYTE [2]: 87.33%
- MEAN CORPUSCULAR HEMOGLOBIN [2]: 24.73 pg
- MEAN CORPUSCULAR HEMOGLOBIN CONCENTRATION [2]: 38.77 G/DL
- MONOCYTE [2]: 1.33%
- NEUTROPHIL [2]: 9.33%
- NUCLEATED RED BLOOD CELLS [2]: 0 /100WBC
- PLATELET COUNT [2]: 1185.67 x10E3/uL
- ALANINE AMINOTRANSFERASE [2]: 45.33 u/L
- ALBUMIN [2]: 4.23 G/DL
- ALKALINE PHOSPHATASE [2]: 367.67 u/L
- ASPARTATE AMINOTRANSFERASE [2]: 79.33 u/L
- BLOOD UREA NITROGEN [2]: 14.67 mg/dL
- CARBON DIOXIDE [2]: 27 mmol/L
- CHLORIDE [2]: 99 MEQ/L
- CHOLESTEROL [2]: 76.33 mg/dL
- CREATINE PHOSPHOKINASE [2]: 268.33 u/L
- CREATININE [2]: 0.18 mg/dL
- GLUCOSE [2]: 157 mg/dL
- LIPASE [2]: 9.67 u/L
- PHOSPHORUS [2]: 15.07 mg/dL
- POTASSIUM [2]: 6.67 MEQ/L
- SODIUM [2]: 143.87 MEQ/L
- TOTAL BILIRUBIN [2]: 0.17 mg/dL
- URIC ACID [2]: 1.7 mg/dL
- ABSOLUTE BASOPHIL [3]: 0 CELLS/uL
- ABSOLUTE EOSINOPHIL [3]: 58.33 CELLS/uL
- ABSOLUTE LYMPHOCYTE [3]: 15491.67 CELLS/uL
- ABSOLUTE MONOCYTE [3]: 116.67 CELLS/uL
- ABSOLUTE SEGMENTED NEUTROPHIL [3]: 2000 CELLS/uL
- BASOPHIL [3]: 0%
- EOSINOPHIL [3]: 0.33%
- HEMATOCRIT [3]: 36.13%
- HEMOGLOBIN [3]: 14.3 G/DL
- LYMPHOCYTE [3]: 87.67%
- MEAN CORPUSCULAR HEMOGLOBIN [3]: 24 pg
- MEAN CORPUSCULAR HEMOGLOBIN CONCENTRATION [3]: 39.57 G/DL
- MONOCYTE [3]: 0.67%
- NEUTROPHIL [3]: 11.33%
- NUCLEATED RED BLOOD CELLS [3]: 0 /100WBC
- PLATELET COUNT [3]: 1288 x10E3/uL
- ALANINE AMINOTRANSFERASE [3]: 54 u/L
- ALBUMIN [3]: 4.03 G/DL
- ALKALINE PHOSPHATASE [3]: 415.33 u/L
- ASPARTATE AMINOTRANSFERASE [3]: 101 u/L
- BLOOD UREA NITROGEN [3]: 15.67 mg/dL
- CARBON DIOXIDE [3]: 26 mmol/L
- CHLORIDE [3]: 101.33 MEQ/L
- CHOLESTEROL [3]: 68.67 mg/dL
- CREATINE PHOSPHOKINASE [3]: 578.67 u/L
- CREATININE [3]: 0.21 mg/dL
- GLUCOSE [3]: 151 mg/dL
- LIPASE [3]: 9.67 u/L
- PHOSPHORUS [3]: 13.47 mg/dL
- POTASSIUM [3]: 6.54 MEQ/L
- SODIUM [3]: 146.17 MEQ/L
- TOTAL BILIRUBIN [3]: 0.13 mg/dL
- TOTAL PROTEIN [3]: 5.93 G/DL
- URIC ACID [3]: 1.8 mg/dL
